{
  "source": "patent US11324798B2",
  "about": "“Materials and methods for treatment of inflammation” (CYTOGEL PHARMA, LLC, priority 2010, dated 2022)",
  "tested_on": "mustard oil-induced acute neurogenic inflammation in the mouse ear",
  "experiment": "5% mustard oil-induced acute neurogenic ear swelling of the mouse, micrometry (Example 2)",
  "format": "in vivo",
  "conditions": "for AUC of time course of percentage ear swelling: 3 h, control 55.29±4.91",
  "method": "For the in vivo rat and mouse experiments, 5.5 ml of the 1 mg/ml stock solution of CYT-1010 was prepared freshly every experimental day with 20% HPCD dissolved in sterile distilled water. […] The vehicle was 20% HPCD dissolved in sterile distilled water. Further dilutions of the compound for the smaller administered doses were made with this vehicle, the 500 μg/ml and 100 μg/ml concentrations looked opalescent and the lower concentrations were clear. In rats 0.1 ml/100 g, in mice 0.1 ml/10 g volumes were administered i.v. 10 min before the induction of the inflammation.\nMice were anaesthesized with urethane (1.2 g/kg i.p.) to achieve a long-lasting deep anaesthesia and minimize respiratory depression. Ten μl of 5% mustard oil dissolved in paraffin oil was smeared on both sides of both ears. Mustard oil in this concentration selectively activates Transient Receptor Potential A1 (TRPA1) on capsaicin-sensitive peptidergic sensory nerves and induces the release of sensory neuropeptides. The released CGRP and substance P (SP) in the innervated area evoke vasodilatation and plasma protein extravasation, collectively called as acute neurogenic inflammation.\nCYT-1010 (1, 10, 100, 500 and 1000 μg/kg; 0.1 ml/10 g from the 0.1, 1, 10, 50 and 100 μg/ml solutions) was administered i.v. 5 min before the induction of the inflammation by mustard oil smearing. Mice in the control group were treated with the same volume of the vehicle, 20% hydroxypropyl-β-cyclodextrin dissolved in sterile distilled water. The experimental protocol is also illustrated in FIG. 1.\nThere were 8 mice in each CYT-1010-treated experimental group, and 9 in the vehicle-treated control group. 49 male CD1 mice (25-35 g) altogether were divided into 6 experimental groups: Group 1: vehicle-treated controls (n=9); Group 2: 1 μg/kg CYT-1010 (n=8); Group 3: 10 μg/kg CYT-1010 (n=8); Group 4: 100 μg/kg CYT-1010 (n=8); Group 5: 500 μg/kg CYT-1010 (n=8); and Group 6: 1000 μg/kg CYT-1010 (n=8).\nThis study was undertaken in blocks with 12-13 mice per occasion. The whole set of data was obtained during 4 days. There were 2 or 3 solvent-treated rats every day and the remaining 12 animals were randomised to receive each treatment.\nThe diameter of the ear was measured with an engineers' micrometer before the treatment and 4 times during the 3 h-examination period (20 min, 1 h, 2 h and 3 h). Oedema was expressed in % compared to the initial control values (Banvolgyi et al., 2004, 2005; Borzsei et al., 2008). Each of these publications is incorporated herein by reference in its entirety.\nResults are expressed as the mean±s.e.m. and analyzed for statistical significance with one-way ANOVA followed by Dunnett post-hoc test when the data were compared to the control group. In the rat in vivo studies, multiple comparisons were also made with Bonferroni's modified t-test to compare the effects of the different doses to each other. *p<0.05 was considered to be significant.",
  "data": [
    {"smiles": "NC(Cc1ccc(O)cc1)C(=O)NC1CCCCNC(=O)C(Cc2ccccc2)NC(=O)C(Cc2c[nH]c3ccccc23)NC1=O", "note": "[CYT-1010, H-Tyr-c-[D-Lys-Trp-Phe]]", "values": [
      {"measurement": "AUC of time course of percentage ear swelling", "setting": "1 μg/kg i.v., P<0.05", "result": "28.99±4.60", "unit": "units"},
      {"measurement": "Effect on mustard oil-induced acute neurogenic ear swelling", "setting": "1 μg/kg, 10 μg/kg and 100 μg/kg i.v.", "result": "significantly reduced"},
      {"measurement": "AUC of time course of percentage ear swelling", "setting": "10 μg/kg i.v., P<0.01", "result": "28.15±3.42", "unit": "units"},
      {"measurement": "AUC of time course of percentage ear swelling", "setting": "100 μg/kg i.v., P<0.01", "result": "26.55±5.51", "unit": "units"},
      {"measurement": "AUC of time course of percentage ear swelling", "setting": "500 μg/kg i.v., NS", "result": "52.24±9.70", "unit": "units"},
      {"measurement": "AUC of time course of percentage ear swelling", "setting": "1000 μg/kg i.v., NS", "result": "37.25±5.72", "unit": "units"},
      {"measurement": "Effect on mustard oil-induced ear swelling", "setting": "1, 10 and 100 μg/kg i.v., at 1 hour", "result": "significant anti-edema action"},
      {"measurement": "Significant inhibition of mustard oil-induced ear swelling", "setting": "1-1000 μg/kg i.v., 20 minutes post induction", "result": "none of the examined CYT-1010 doses"},
      {"measurement": "Anti-edema effect on the mouse ear", "setting": "1-1000 μg/kg i.v., throughout a 3-h period", "result": "significant anti-edema effect"},
      {"measurement": "Inhibitory action on ear swelling", "setting": "10 and 100 μg/kg i.v., both later time points (2 h, 3 h)", "result": "statistically significant"},
      {"measurement": "Effect on mustard oil-induced ear swelling", "setting": "500 and 1000 μg/kg i.v.", "result": "did not influence ear swelling"}
    ]}
  ]
}
